Source: article PMC9313812, “The Pseudo‐Natural Product Rhonin Targets RHOGDI” (Angewandte Chemie (International Ed. in English), 2022)

Experiments:
[1] = Parallel artificial membrane permeability assay (PAMPA); type: in vitro ADME; conditions: initial 500 µM in donor, 20 h
Experimental: 500 µM final compound concentrations. The kinetic solubility of the compound solutions in HEPES buffer pH 7.4 were then compared to a solution in the organic solvent (ACN) after vigorous shaking on an orbital shaker at room temperature for 90 min. Therefore, the spectrum 250 -500 nm was recorded using the Spectramax plate reader. Precipitated material was removed by filtration prior to analysis. Each sample was tested in triplicate.
Aqueous solubility was also determined using a turbidimetric assay. DMSO stock solutions were diluted in DMSO to produce a range of concentrations. These were then added to PBS buffer pH7.4 (final test compound concentrations: 1 µM, 3 µM, 10 µM, 30 µM, 100 µM, 1% final DMSO concentration, 7 replicates per concentration). After 2 h incubation period at room temperature, the absorbance at 620 nm was read for each concentration and each replicate using a Spectramax plate reader.
Permeability through artificial membranes assay (PAMPA)
Permeability through artificial membranes (phospholipid/cholesterol in dodecane) was assessed at an initial compound concentration of 500 µM in the donor compartment. Absorption of the receiver wells was determined by spectrophotometrical measurement using a Spectramax absorbance plate reader after 20 h of incubation. Permeation was calculated by normalization of compound flux across a blank filter. […]

[2] = target: T1, RHOGDI1-mediated extraction of RHOA (Homo sapiens, UniProt P52565); test: Liposome sedimentation assay: displacement of prenylated GDP-bound RHOA by GST-RHOGDI1; type: biochemical; conditions: 50 μM compound
T1 construct: made in house; host or cells: RHOGDI1: E. coli; prenylated RHOA: insect cells (TNAO38)
T1 sequence (P52565 whole entry): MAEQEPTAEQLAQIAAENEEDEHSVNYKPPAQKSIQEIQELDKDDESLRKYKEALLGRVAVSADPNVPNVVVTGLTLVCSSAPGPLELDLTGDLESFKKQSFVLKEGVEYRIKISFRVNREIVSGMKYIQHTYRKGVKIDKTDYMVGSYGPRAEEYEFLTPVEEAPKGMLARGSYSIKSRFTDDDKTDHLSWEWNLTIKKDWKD
Experimental: Supplementary Figure S4. Compound 7a impairs RHOGDI1 function. (a) Assay setup for the liposome sedimentation assay. (b) Displacement of prenylated GDP‐bound RAC1 from synthetic liposomes by GST-RHOGDI1 in the presence or absence of 50 μM 7a was measured using liposome floatation assay. Data is representative of three independent experiments.
Liposome-containing phase represented by fluorescent colour as result of 5% fluorescent NDB-PE was analysed by Western blotting. Data are representatives of three independent […]
experiments. (c-d) Displacement of prenylated
GDP‐bound RHO GTPases (RHOA and CDC42) from synthetic liposomes by GST‐RHOGDI1 […]
liposome sedimentation assay. Data is representative of three independent experiments. P: […]
Liposome sedimentation assay
Liposomes were prepared by self-assembly of the lipids (500 μg) containing 20% (w/w) phosphatidylethanolamine, 45% (w/w) phosphatidylcholine, 20% (w/w) phosphatidylserine, 10% (w/w) cholesterol, and 5% (w/w) phosphatidylinositol 4,5-bisphosphate. […] The resulting pellet and supernatant fractions were collected and analyzed by immunoblotting. […]
The resulting samples were centrifuged at 140000 x g for 1 h at 4 °C. The upper liposome‐ containing phase (detected by fluorescent NDB‐PE) was collected and analyzed by […]

Row | SMILES | permeability, flux in PAMPA [1] | Inhibition of RHOGDI1-mediated extraction of RHOA (in words) [2]
1 | COC(=O)C1(C(CC(=O)c2cccnc2)c2ccccc2)N=C(c2ccc(Br)cc2)C2C(=O)N(C)C(=O)C21 (centres unmarked) [7l] | 41.1% | –
2 | COC(=O)C1(C(CC(=O)c2ccccc2)c2ccccc2)N=C(c2ccc(Br)cc2)C2C(=O)N(C)C(=O)C21 (centres unmarked) [7a] | – | inhibited
